Measured values published in ChEMBL document CHEMBL3039007, “Structure-based identification of OATP1B1/3 inhibitors” (Mol Pharmacol, 2013).
Where “and” joins values, the source holds several entries; their conditions need not be identical. Equal entries are not always repeated. Structures can show the parent of a compound that is named as a salt.

Tests used:
[1] = biological target: T1, Solute carrier organic anion transporter family member 1B1 (Homo sapiens, UniProt Q9Y6L6)
T1 sequence (Q9Y6L6 whole entry): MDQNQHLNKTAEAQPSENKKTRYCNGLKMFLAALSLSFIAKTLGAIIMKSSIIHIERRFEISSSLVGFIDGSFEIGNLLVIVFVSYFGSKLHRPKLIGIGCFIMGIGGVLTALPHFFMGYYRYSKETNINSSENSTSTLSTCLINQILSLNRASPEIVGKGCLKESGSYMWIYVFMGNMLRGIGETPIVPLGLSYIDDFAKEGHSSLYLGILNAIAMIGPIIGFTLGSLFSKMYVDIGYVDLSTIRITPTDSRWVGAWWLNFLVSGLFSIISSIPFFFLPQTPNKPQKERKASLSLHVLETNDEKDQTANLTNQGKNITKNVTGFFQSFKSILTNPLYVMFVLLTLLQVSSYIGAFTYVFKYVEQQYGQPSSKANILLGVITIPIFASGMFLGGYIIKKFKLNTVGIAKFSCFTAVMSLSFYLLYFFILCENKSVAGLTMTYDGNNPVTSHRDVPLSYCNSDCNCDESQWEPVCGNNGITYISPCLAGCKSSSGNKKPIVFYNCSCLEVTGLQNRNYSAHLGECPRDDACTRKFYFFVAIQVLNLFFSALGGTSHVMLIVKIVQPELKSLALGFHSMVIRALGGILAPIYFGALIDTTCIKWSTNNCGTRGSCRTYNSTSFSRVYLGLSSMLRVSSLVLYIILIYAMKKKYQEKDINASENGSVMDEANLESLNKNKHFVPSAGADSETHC

[2] = biological target: T2, Solute carrier organic anion transporter family member 1B3 (Homo sapiens, UniProt Q9NPD5)
T2 sequence (Q9NPD5 whole entry): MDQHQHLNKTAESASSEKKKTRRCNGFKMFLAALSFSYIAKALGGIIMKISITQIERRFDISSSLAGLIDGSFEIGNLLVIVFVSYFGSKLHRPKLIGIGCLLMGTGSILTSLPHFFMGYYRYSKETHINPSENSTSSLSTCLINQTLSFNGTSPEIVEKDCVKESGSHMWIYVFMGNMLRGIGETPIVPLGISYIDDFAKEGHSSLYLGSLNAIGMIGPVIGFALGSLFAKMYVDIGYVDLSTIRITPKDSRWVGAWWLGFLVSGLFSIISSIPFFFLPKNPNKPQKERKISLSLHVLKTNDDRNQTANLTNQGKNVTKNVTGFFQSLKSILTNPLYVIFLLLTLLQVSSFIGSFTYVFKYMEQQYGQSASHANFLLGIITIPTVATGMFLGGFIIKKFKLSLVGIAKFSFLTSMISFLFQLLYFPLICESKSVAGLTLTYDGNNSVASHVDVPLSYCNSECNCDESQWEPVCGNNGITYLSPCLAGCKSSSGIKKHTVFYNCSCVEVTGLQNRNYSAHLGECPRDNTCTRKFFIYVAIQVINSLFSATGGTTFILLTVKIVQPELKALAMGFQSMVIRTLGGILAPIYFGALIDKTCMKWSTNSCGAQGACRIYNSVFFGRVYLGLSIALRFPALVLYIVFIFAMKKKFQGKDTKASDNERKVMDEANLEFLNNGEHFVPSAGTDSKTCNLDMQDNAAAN

[3] = biological target: T1, Solute carrier organic anion transporter family member 1B1; details: chinese hamster, cho, 10 µM
[4] = biological target: T2, Solute carrier organic anion transporter family member 1B3; details: chinese hamster, cho, 10 µM

Structure (SMILES)	Ki [1]	Ki [2]	residual activity [3]	residual activity [4]
CCCCCC[C@H]1C(=O)O[C@H](C)[C@H](NC(=O)c2cccc(NC=O)c2O)C(=O)O[C@@H](C)[C@@H]1OC(=O)CC(C)C [ANTIMYCIN A]	2200 nM	3820 nM	31.93%	28.62%
CC[C@H]1/C=C/C=C/C[C@@H](C)[C@H](O)[C@@](C)(O)C(=O)[C@@H](C)[C@H](O)[C@@H](C)C(=O)[C@@H](C)[C@H](O)[C@@H](C)/C=C/C(=O)O[C@@H]2[C@H](C)[C@H](CC1)O[C@]1(CC[C@H](C)[C@H](C[C@@H](C)O)O1)[C@H]2C [OLIGOMYCIN]	250 nM	440 nM	11.28%	3.002%
C=C1[C@@H]2CC[C@@]3(C)[C@H](c4ccoc4)OC(=O)C[C@]13O[C@H]1C[C@H](O)C(C)(C)[C@H](CC(=O)OC)[C@]12C	680 nM	3060 nM	16%	17.5%
CC(=O)O[C@@H]1C[C@H]2C(C)(C)[C@@H](O)CC[C@]2(C)[C@H]2CC[C@]3(C)C(=CC(=O)O[C@H]3c3ccoc3)[C@@]21C	930 nM and 1490 nM	2500 nM and 2390 nM	31.46%	25.89%
CC(=O)O[C@H]1CC[C@]2(C)C(C[C@@H](OC(C)=O)[C@]3(C)C4=CC(=O)O[C@H](c5ccoc5)[C@@]4(C)CCC23)C1(C)C (stereo partly drawn) [3-DEOXO-3beta-ACETOXYDEOXYDIHYDROGEDUNIN]	410 nM	2670 nM	14.97%	20.65%
CC[C@@H](C(=O)[C@@H](C)[C@@H](O)[C@H](C)[C@@H]1O[C@@H]([C@@H](CC)C(=O)[O-])CC[C@@H]1C)[C@H]1O[C@]2(C=C[C@@H](O)[C@]3(CC[C@@](C)([C@H]4CC[C@](O)(CC)[C@H](C)O4)O3)O2)[C@H](C)C[C@@H]1C.[Na+] [SALINOMYCIN SODIUM]	2030 nM	3310 nM	21.72%	16.99%
CC(=O)O[C@@H]1CC2C(C)(C)[C@H](O)C[C@H](O)[C@@]2(C)C2CC[C@]3(C)C(=CC(=O)O[C@@H]3c3ccoc3)[C@]21C (stereo partly drawn) [1,3-DIDEACETYLDEOXYKHIVORIN]	2960 nM	6590 nM	31.1%	50.83%
CC(=O)[C@H]1CC[C@H]2[C@@H]3C[C@H](C)C4=CC(=O)CC[C@]4(C)[C@H]3[C@@H](O)C[C@]12C [MEDRYSONE]			86.36%	90.89%
C[C@]12CC[C@@H]3c4ccc(O)cc4CC[C@H]3[C@@H]1C[C@@H](O)[C@@H]2O [ESTRIOL]			110.2%	102.7%
Cc1cc(OC(=O)c2c(C)cc(O)cc2O)cc(O)c1C(=O)O [LECANORIC ACID]			61.21%	60.79%
COc1cc2c(cc1OC)[C@@H]1C(=O)c3ccc4oc(C(C)C)cc4c3O[C@@H]1CO2 [ISOROTENONE]			78.62%	87.44%
CCOc1ccc(C(=O)c2ccc(OC)c(O)c2O)cc1 [2,3-DIHYDROXY-4-METHOXY-4'-ETHOXYBENZOPHENONE]			172.8%	102.2%
COc1ccc2c(c1)c(CC(=O)O)c(C)n2C(=O)c1ccc(Cl)cc1 [INDOMETHACIN]			97.38%	50.32%
CCN(CCCc1ccccc1)CCCc1ccccc1.O=C(O)CC(O)(CC(=O)O)C(=O)O [ALVERINE CITRATE]			48.34%	74.4%
O=C(/C=C/C(=O)Oc1ccccc1C(=O)O)Oc1ccccc1C(=O)O [BISSALICYL FUMARATE]			104.8%	99.92%
O=c1cc(-c2cc(O)c(O)c(O)c2)oc2cc(O)cc(O)c12 [TRICETIN]			79.5%	127.6%
O=C1CCCN1CC#CCN1CCCC1 [OXOTREMORINE]			95.24%	82.72%
Cl.c1cncc([C@@H]2CCCCN2)c1 [ANABASINE HYDROCHLORIDE]			83.96%	91.54%
CO/N=C(\C(=O)N[C@@H]1C(=O)N2C(C(=O)[O-])=C(COC(C)=O)CS[C@H]12)c1csc(N)n1.[Na+] [CEFOTAXIME SODIUM]			104.1%	119.2%

Structure (SMILES)	Ki [1]	Ki [2]	residual activity [3]	residual activity [4]
O=C1C[C@@H](c2ccc(O)cc2)Oc2cc(O)cc(O)c21 [NARINGENIN]			96.26%	95.55%
COc1ccc(-c2coc3c(OC)c(OC)cc(O)c3c2=O)cc1 [ISOTECTORIGENIN, 7-METHYL ETHER]			135.9%	105%
C[C@@H]1C[C@H]2[C@@H]3C[C@H](F)C4=CC(=O)C=C[C@]4(C)[C@@]3(F)[C@@H](O)C[C@]2(C)[C@@]1(O)C(=O)COC(=O)C(C)(C)C [FLUMETHASONE PIVALATE]			98.41%	107.9%
COc1cc2c(cc1OC)[C@@H]1C(=O)c3ccc(O)c(CC=C(C)C)c3O[C@@H]1CO2 [ROTENONIC ACID]			53.2%	99.21%
Oc1ccc(O)cc1 [HYDROQUINONE]			112.9%	93.82%
COc1ccc(C(Cl)=C(c2ccc(OC)cc2)c2ccc(OC)cc2)cc1 [CHLOROTRIANISENE]			91.3%	92.54%
CC1=C(/C=C/C(C)=C/C=C/C(C)=C/C=C/C=C(C)/C=C/C=C(C)/C=C/C(=O)[C@]2(C)C[C@@H](O)CC2(C)C)C(C)(C)C[C@H](O)C1 [CAPSANTHIN]			79.45%	102.1%
C[C@@H]1O[C@@H](O[C@H]2CC[C@]3(C=O)[C@H]4CC[C@]5(C)[C@@H](C6=CC(=O)OC6)CC[C@]5(O)[C@@H]4CC[C@]3(O)C2)[C@H](O)[C@H](O)[C@H]1O [CONVALLATOXIN]			102.3%	95.81%
CS(=O)(=O)c1ccc([C@@H](O)[C@@H](CO)NC(=O)C(Cl)Cl)cc1 [THIAMPHENICOL]			102.1%	103.5%
CO[C@H]1/C=C/O[C@@]2(C)Oc3c(C)c(O)c4c(O)c(c5c(nc6cc(C)ccn65)c4c3C2=O)NC(=O)/C(C)=C\C=C\[C@H](C)[C@H](O)[C@@H](C)[C@@H](O)[C@@H](C)[C@H](OC(C)=O)[C@@H]1C [RIFAXIMIN]			63.34%	81.07%
C=CC(C1=CC(=O)C(OC)=CC1=O)c1ccc(O)cc1 (stereo not drawn) [DALBERGIONE, 4-METHOXY-4'-HYDROXY-]			114.1%	246.6%
COc1c2c(cc3occ(-c4ccc5c(c4)OCO5)c(=O)c13)OC(C)(C)C=C2 [METHYL ROBUSTONE]			133%	107.5%
COc1cc2c3cc1Oc1cc(ccc1O)C[C@@H]1c4c(cc(OC)c(O)c4Oc4ccc(cc4)C[C@@H]3N(C)CC2)CC[N+]1(C)C.[Cl-]			99.28%	110.3%
CNCCCN1c2ccccc2CCc2ccccc21.Cl [DESIPRAMINE HYDROCHLORIDE]			55.55%	96.51%
Br.COC(=O)C1=CCCN(C)C1 [ARECOLINE HYDROBROMIDE]			112.6%	103.7%
NC(=O)NCC(N)C(=O)O (stereo not drawn) [ALBIZZIINE]			118.1%	110.8%
COc1ccc2c(c1)OC[C@@H](Cc1ccc(OC)c(OC)c1)[C@@H]2O [3-DESHYDROXYSAPPANOL TRIMETHYL ETHER]			100.6%	104.1%
NCCC(=O)N[C@@H](Cc1cnc[nH]1)C(=O)O [CARNOSINE]			26.44%	98.86%
